What was measured:
ROS1-wt kinase domain = molecular target: T1, ROS1-wt kinase domain (Homo sapiens, UniProt P08922); test: Biochemical kinase assay, ROS1-wt; conditions: 2 mM ATP substrate solution, read-out: Ki^app ROS1-wt
T1 construct: TRKA-wt (1 nM, BPS Bio, 40280) kinase domains in buffer; purchased Carna 08-163
Procedure, shortened: (§1)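 Apparent Ki values come from fitting initial reaction rates against inhibitor concentration to the Morrison equation. Rates were taken from the linear phase of fluorogenic substrate phosphorylation (AQT0101 for ALK and ROS1, AQT0104 for TRKA; 26 μM in substrate solution with 2 mM ATP), monitored at 485 nm over 120 min at 30° C.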

[1] = molecular target: T2, ALK L1196M/G1202R kinase domain (Homo sapiens, UniProt Q9UM73, G1202R/L1196M); test: Biochemical kinase assay, ALK L1196M/G1202R; conditions: 2 mM ATP substrate solution, read-out: Ki^app ALK-L1196M-G1202R
T2 construct: TRKA-wt (1 nM, BPS Bio, 40280) kinase domains in buffer; purchased SignalChem A19-12NG
Procedure, shortened: as §1

ALK-wt kinase domain = molecular target: T3, ALK-wt kinase domain (Homo sapiens, UniProt Q9UM73); test: Biochemical kinase assay, ALK-wt; conditions: 2 mM ATP substrate solution, read-out: Ki^app ALK-wt
T3 construct: TRKA-wt (1 nM, BPS Bio, 40280) kinase domains in buffer; purchased Carna 08-518
Procedure, shortened: as §1

[2] = molecular target: T4, ROS1-G2032R kinase domain (Homo sapiens, UniProt P08922, G2032R); test: Biochemical kinase assay, ROS1-G2032R; conditions: 2 mM ATP substrate solution, read-out: Ki^app ROS1-G2032R
T4 construct: TRKA-wt (1 nM, BPS Bio, 40280) kinase domains in buffer; purchased SignalChem R14-12BG
Procedure, shortened: as §1

TRKA-wt kinase domain = molecular target: T5, TRKA-wt kinase domain (Homo sapiens, UniProt P04629); test: Biochemical kinase assay, TRKA-wt; conditions: 2 mM ATP substrate solution, read-out: Ki^app TRKA-wt
T5 construct: TRKA-wt (1 nM, BPS Bio, 40280) kinase domains in buffer; purchased BPS Bio 40280
Procedure, shortened: as §1

SMILES	Ki (ROS1-wt kinase domain)	Ki [1]	Ki (ALK-wt kinase domain)	Ki [2]	Ki (TRKA-wt kinase domain)
C[C@H]1Oc2cc(cnc2N)-c2c(cnn2CC2CC2)Cc2cn(C(F)F)nc2-c2ccc(F)cc21 [Compound 160]	< 50 nM	< 50 nM	< 50 nM	< 50 nM	> 500 nM
CCc1noc2c1-c1cnc(N)c(n1)O[C@H](C)c1cc(F)ccc1-c1nn(C)cc1C2 [Compound 162]	< 50 nM	< 50 nM	< 50 nM	< 50 nM	< 50 nM
CCn1ncc2c1-c1cnc(N)c(n1)OC(C)c1cc(F)ccc1-c1nccn1C2 (stereo not drawn) [Compound 163]	< 50 nM	< 50 nM	< 50 nM	< 50 nM	50 to 500 nM
CCn1ncc2c1-c1cnc(N)c(n1)OC(C)c1cc(F)ccc1-c1c(cnn1C)C2 (stereo not drawn) [Compound 164]	< 50 nM	50 to 500 nM	< 50 nM	< 50 nM	> 500 nM
CCn1ncc2c1-c1ccc(F)cc1C(C)Oc1nc(cnc1N)-c1c(cnn1C)C2 (stereo not drawn) [Compound 165]	< 50 nM	50 to 500 nM	< 50 nM	50 to 500 nM	50 to 500 nM
CCn1ncc2c1-c1cnc(N)c(c1)OC(CO)c1cc(F)ccc1-c1nccn1C2 (stereo not drawn) [Compound 166]	< 50 nM	50 to 500 nM	< 50 nM	50 to 500 nM	> 500 nM
CC1Oc2cc(cnc2N)-c2c(C#N)ncn2Cc2cnn(C)c2-c2ccc(F)cc21 (stereo not drawn) [Compound 167]	< 50 nM	50 to 500 nM	< 50 nM	50 to 500 nM	> 500 nM
CC1Oc2cc(cnc2N)-c2c(n[nH]c2C#N)Cc2cnn(C)c2-c2ccc(F)cc21 (stereo not drawn) [Compound 168]	< 50 nM	< 50 nM	< 50 nM	< 50 nM	> 500 nM

Next, values leading:

Ki (ROS1-wt kinase domain)	Ki [1]	Ki (ALK-wt kinase domain)	Ki [2]	Ki (TRKA-wt kinase domain)	SMILES
< 50 nM	< 50 nM	< 50 nM	< 50 nM	< 50 nM	C[C@H]1Oc2cc(cnc2N)-c2c(nn(C)c2C#N)Cc2ccnn2-c2ccc(F)cc21 [Compound 169]
< 50 nM	< 50 nM	< 50 nM	< 50 nM	< 50 nM	CCc1nn(C)c2c1-c1cnc(N)c(c1)O[C@H](C)c1cc(F)ccc1-c1nn(C)cc1C2 [Compound 171]
< 50 nM	< 50 nM	< 50 nM	< 50 nM	50 to 500 nM	C[C@H]1Oc2cc(cnc2N)-c2c(nn(C)c2C2CCC2)Cc2ccnn2-c2ccc(F)cc21 [Compound 174]
< 50 nM	< 50 nM	< 50 nM	< 50 nM	50 to 500 nM	CCc1nn(C)c2c1-c1cnc(N)c(c1)OCc1cc(F)ccc1-c1nc(C)sc1C2 [Compound 175]
< 50 nM	< 50 nM	< 50 nM	50 to 500 nM	> 500 nM	CCc1nn(C)c2c1-c1cnc(N)c(c1)OCc1cc(F)ccc1-c1nn(C)cc1C2 [Compound 176]
< 50 nM	< 50 nM	< 50 nM	< 50 nM	50 to 500 nM	C[C@H]1Oc2cc(cnc2N)-c2c(nn(C)c2CC2CC2)Cc2ccnn2-c2ccc(F)cc21 [Compound 177]
< 50 nM	< 50 nM	< 50 nM	< 50 nM	50 to 500 nM	C[C@H]1Oc2cc(cnc2N)-c2c(CC3CC3)nn(C)c2Cc2cn(C)nc2-c2ccc(F)cc21 [Compound 178]
< 50 nM	< 50 nM	< 50 nM	< 50 nM	50 to 500 nM	C[C@H]1Oc2cc(cnc2N)-c2c(nn(C)c2CC2CC2)Cc2cn(C)nc2-c2ccc(F)cc21 [Compound 179]
< 50 nM	< 50 nM	< 50 nM	< 50 nM	50 to 500 nM	C[C@H]1Oc2cc(cnc2N)-c2c(CC(F)F)nn(C)c2Cc2cc(C(F)F)nn2-c2ccc(F)cc21 [Compound 180]
< 50 nM	< 50 nM	< 50 nM	< 50 nM	50 to 500 nM	CCn1nc(OC)c2c1-c1cnc(N)c(c1)O[C@H](C)c1cc(F)ccc1-c1nn(C)cc1C2 [Compound 181]
